Measurements as given in the supplement of paper PMC8671470.

Assays:
Settings in all cases: 72 h
HL-60 = test: area under dose-response curve (viability, 1 nM-10 uM) (fraction (0-1)); higher = more sensitive
Summary of the method: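 Area under the curve, where listed, was derived from four-parameter log-logistic fits with drc and PharmacoGx. These fits used CellTiter-Glo viability from HL-60 cells in RPMI 1640 with 10% FBS, normalised to DMSO wells and wells holding 10 μM proteasome inhibitor. The full library was rescreened on 384-well plates in duplicate at five tenfold concentrations, 1–10,000 nM, with DMSO or 100 nM of one of three metabolic inhibitors, for 72 h at 37 °C, 5% CO2.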

[1] = tested on: myeloid leukemia patient primary cells Pat.6; test: cell viability (% survival relative to DMSO control); higher = less cytotoxic
Summary of the method: (§1)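 Mononuclear cells from patients with AML or CML were thawed, purified on Ficoll and placed in RPMI 1640 with 10% FBS at 10,000 cells/well on 384-well plates. The plates came pre-printed with 70 compounds at five tenfold concentrations spanning 1–10,000 nM, in duplicate, and cells were exposed for 72 h. CellTiter-Glo gave viability, scaled between DMSO wells and wells with 10 μM proteasome inhibitor. Where reported, area under the curve was obtained from log-logistic fits with four parameters using the drc and PharmacoGx R packages.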

[2] = tested on: myeloid leukemia patient primary cells Pat.15; test: as above
Summary of the method: as §1

[3] = tested on: myeloid leukemia patient primary cells Pat.1; test: as above
Summary of the method: as §1

[4] = tested on: myeloid leukemia patient primary cells Pat.5; test: as above
Summary of the method: as §1

[5] = tested on: myeloid leukemia patient primary cells Pat.12; test: as above
Summary of the method: as §1

[6] = tested on: myeloid leukemia patient primary cells Pat.10; test: as above
Summary of the method: as §1

[7] = tested on: myeloid leukemia patient primary cells Pat.2; test: as above
Summary of the method: as §1

[8] = tested on: myeloid leukemia patient primary cells Pat.14; test: as above
Summary of the method: as §1

[9] = tested on: myeloid leukemia patient primary cells Pat.13; test: as above
Summary of the method: as §1

[10] = tested on: myeloid leukemia patient primary cells Pat.8; test: as above
Summary of the method: as §1

[11] = tested on: myeloid leukemia patient primary cells Pat.4; test: as above
Summary of the method: as §1

[12] = tested on: myeloid leukemia patient primary cells Pat.7; test: as above
Summary of the method: as §1

[13] = tested on: myeloid leukemia patient primary cells Pat.9; test: as above
Summary of the method: as §1

[14] = tested on: myeloid leukemia patient primary cells Pat.11; test: as above
Summary of the method: as §1

Mono-Mac-6 = test: cell viability (% survival relative to DMSO control, bortezomib = 0%); higher = less cytotoxic
Summary of the method: (§2)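 Fifteen myeloid leukaemia cell lines were exposed to compounds at 1, 10, 100, 1000 or 10000 nM in 384-well plates for 72 h at 37 °C and 5% CO2. Viability was read by CellTiter-Glo luminescence and normalised, with vehicle as 100% and a 10 µM positive control as 0%. Values are percent survival averaged over duplicates.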

SHI-1 = test: as above
Summary of the method: as §2

HEL = test: as above
Summary of the method: as §2

COc1cc(/C=C/C(=O)N2CCC=CC2=O)cc(OC)c1OC [Piperlongumine]
Settings | area under dose-response curve, co-treatment: AZD3965 100 nM | area under dose-response curve, co-treatment: DMSO vehicle | area under dose-response curve, co-treatment: GSK2194069 100 nM | area under dose-response curve, co-treatment: pictilisib 100 nM | cell viability, 1 nM [%] | cell viability, 10 nM [%] | cell viability, 100 nM [%] | cell viability, 1000 nM [%] | cell viability, 10000 nM [%]
HEL | – | – | – | – | 90.1 | 111 | 103 | 97.5 | -0.0957
HL-60 | 0.131 | 0.134 | 0.156 | 0.153 | – | – | – | – | –
Mono-Mac-6 | – | – | – | – | 94.3 | 107 | 98.7 | 86.5 | 1.58
SHI-1 | – | – | – | – | 100 | 98.3 | 106 | 89 | 0.583
[1] | – | – | – | – | 83.2 | 96.6 | 86.2 | > 100 | 2.54
[2] | – | – | – | – | 84 | 96.2 | 98.5 | 70.3 | 1.42
[3] | – | – | – | – | 93.4 | 84.5 | 70.3 | 75.6 | 3.43
[4] | – | – | – | – | 6.78 | 82.5 | 13.4 | 11.1 | 10.1
[5] | – | – | – | – | 99.6 | 88.9 | 95.2 | 80.4 | 3.26
[6] | – | – | – | – | 79.5 | 77.8 | 71.8 | 45.5 | > 100
[7] | – | – | – | – | 90.5 | 98.5 | 93.3 | 93.6 | 4.56
[8] | – | – | – | – | 60.5 | 98.5 | 68.7 | 44.8 | 6.11
[9] | – | – | – | – | 81.8 | 98.3 | 76 | 69 | 21.2
[10] | – | – | – | – | 79.2 | 89.3 | 79.2 | 77.1 | 0.503
[11] | – | – | – | – | 82.6 | 88.8 | 68.2 | 53.9 | < 0
[12] | – | – | – | – | 52 | > 100 | 69.9 | 78.6 | 57
[13] | – | – | – | – | 9.44 | 76.7 | 31.8 | 39 | 7.88
[14] | – | – | – | – | 94.1 | 98.5 | > 100 | > 100 | 5.04

C=C(C)[C@H]1Cc2c(ccc3c2O[C@@H]2COc4cc(OC)c(OC)cc4[C@@H]2C3=O)O1 [Rotenone]
Settings | area under dose-response curve, co-treatment: AZD3965 100 nM | area under dose-response curve, co-treatment: DMSO vehicle | area under dose-response curve, co-treatment: GSK2194069 100 nM | area under dose-response curve, co-treatment: pictilisib 100 nM | cell viability, 1 nM [%] | cell viability, 10 nM [%] | cell viability, 100 nM [%] | cell viability, 1000 nM [%] | cell viability, 10000 nM [%]
HEL | – | – | – | – | 99.4 | 92 | 63.2 | 12.3 | 1.89
HL-60 | 0.137 | 0.319 | 0.289 | 0.256 | – | – | – | – | –
Mono-Mac-6 | – | – | – | – | 94.1 | 96.4 | 76.7 | 9.03 | 2.24
SHI-1 | – | – | – | – | 96.3 | 93.4 | 73.7 | 4.23 | 5.24
[1] | – | – | – | – | 44.2 | 75.4 | 47.2 | 37.3 | 23.7
[2] | – | – | – | – | 44.9 | 66 | 43.9 | 24.3 | 37.6
[3] | – | – | – | – | 75.9 | 81.3 | 72.8 | 68.4 | 34.8
[4] | – | – | – | – | 5.46 | 0.265 | 0.912 | 0.265 | 1.18
[5] | – | – | – | – | 94.8 | 89.2 | 66.1 | 64.9 | 49.5
[6] | – | – | – | – | 38.7 | 75.5 | 47.7 | 30 | 20.9
[7] | – | – | – | – | 62.7 | 86.5 | 68.7 | 61.5 | 57.5
[8] | – | – | – | – | 30.2 | 71 | 50 | 30.8 | 10.7
[9] | – | – | – | – | 62.5 | 80.5 | 57.6 | 17.2 | 11.9
[10] | – | – | – | – | 70.8 | 79.3 | 55.6 | 36.8 | 3.96
[11] | – | – | – | – | 79.9 | 89.3 | 88.5 | 62.3 | 11.7
[12] | – | – | – | – | 5.63 | 79.4 | 54.6 | 36.3 | 1.21
[13] | – | – | – | – | 1.24 | 50.1 | 10.8 | 1.6 | < 0
[14] | – | – | – | – | 88.5 | 93.3 | 94.2 | 85.5 | 73.9
